Assays:
[1] = system: dorsal surface of the tongue; conditions: average of 6 subjects, filter paper on tongue; Watson et al.; cited from earlier work
philtrum skin [2] = experiment: Cooling on facial (philtrum) skin, ointment; format: in vivo, human; conditions: for Philtrum Skin (min), duration of cooling: 5 mg/ml in Aquaphor ointment
Description: A reliable place for topical application is the skin above the upper lip (above the vermilion border of the lips), on the philtrum, lateral to the philtrum until the nasolabial folds, and on the lower nostrils (subnasale). This part of the face is known to be densely innervated with cold receptors, second only to the surfaces of the eyeball and anogenitalia. At this locus, tingling, cool and cold sensations in the skin may be experienced and rated for time of onset and intensity.
The intervals for recording sensations are 5 to 10 minutes, until two successive zeroes are obtained. The results (shown in FIG. 1) are averaged values of 4 to 6 separate trials in the same individual. The data are plotted using SigmaPlot® (Systat Software, Point Richmond Calif.) and a smoothing function with a negative exponential was used for analysis and statistical fit of the results. Confirmatory trials of cooling action of the long-acting NACE compounds were obtained in 2 to 4 individuals but not quantified for some because of the large number of chemicals that were evaluated.
(§1) The onset of drug action is taken as the time to reach 2 units of coolness intensity, and offset of drug action is the time when coolness intensity drops below 2, after previously surpassing 2 units. The duration of cooling action is defined as the offset time minus the onset time. […] The quality of the sensation is noted, for example, as pure refreshing coolness, or if the sensation is accompanied by irritation (stinging or burning). The quality of the sensation is not rated for intensity.
For bioassay on the skin, approximately 30 mg was stirred and dissolved in 3 g of warm liquid Aquaphor® ointment to a yield a 40 mM (˜1% wt/vol) ointment. The exact amount was adjusted so that the molar equivalent was about 35 to 40 mM. After cooling, 40 to 70 mg of the solid ointment was placed on the tip of a plastic stick and applied to the skin above the upper lip, on the philtrum, and lateral to the philtrum, up to the nasolabial folds, of test subjects and the onset and duration of cooling sensations noted.
The intervals for recording sensations were 5 to 10 minutes, until two successive zeroes were obtained. The results (shown in FIG. 1) are averaged values of 4 to 6 separate trials in the same individual. The data are plotted using SigmaPlot® (Systat Software, Point Richmond, Calif., USA) and a smoothing function with a negative exponential was used for analysis and statistical fit of the results.
as §1, with “was” for “is”, “was also noted: such” for “is noted, for example,”
In the results of FIG. 1, the test compounds were singly applied to the skin above the upper lips as a ˜1% wt/vol (10 mg/ml) ointment. Subsequently, for the results shown in Table 3, the test dose on the philtrum was reduced to a 0.5% wt/vol (5 mg/ml) ointment. The reason for choosing a lower dose was to increase the number of trials per individual and to have a reduced chance of substances accumulating in the skin.

oral cavity / oropharynx = experiment: Cooling in oral cavity after application on dorsal surface of tongue; format: in vivo, human; conditions: for sensory irritation in oral cavity: 2 to 5 mg on tongue
Description: The subject is instructed to close and hold the substance in the mouth for at least 10 seconds and not to swallow. The description of sensations is then recorded at 5 to 10 minute intervals.
The compounds of Formula 1 are white crystalline solids at room temperatures. These compounds were tested as the pure powder (>95% purity, by HPLC analysis), or mixed 1:1 with powdered or granulated sugar. The test substances were applied at 2 to 5 mg on the mid-point of the dorsal surface of the tongue using a metal spatula or a plastic applicator. After depositing the test substance on the tongue, the subject was instructed to keep the mouth closed and allow the fluids of the mouth to inter-mix with the test substance and to distribute it to the back of the mouth (oropharynx). The presence and duration of subjective sensations from the mouth was then recorded.

pharyngeal surface = experiment: Chili-pepper sauce cough challenge test; format: in vivo, human; design: key: If there is no attenuation of the challenge stimuli, the score is 0; if there is partial inhibition, the score is +; if there is complete attenuation of the cough signal, the score is ++; conditions: challenge 45 to 50 min after ODT containing 2 mg of test substance
Description: A number of cough challenge methods have been devised for evoking the cough reflex (Morice et al. Briti. J. Clin. Pharmacol. 52: 365-375, 2001). Usually, citric acid or capsaicin is delivered via the inhalation route to volunteers and the number of coughs counted. […] The chili pepper sauce used here is called Yank Sing® Chili Pepper Sauce (YS Gourmet Productions, Inc., PO Box 26189, San Francisco, Calif. 94126) and is a well-known condiment for use with dim sum (Chinese tea lunch). The sensations associated with the chili pepper sauce are located in the back of the mouth and are clearly recognized and associated with a desire to clear the throat. […] To test for anti-cough activity the ODT with the test substance is first administered onto the dorsal surface of the tongue and 45 to 50 min afterwards the chili-pepper sauce test is administered. If there is no attenuation of the challenge stimuli, the score is 0, if there is partial inhibition, the score is +, and if there is complete attenuation of the cough signal, the score is ++. In the presence of an ODT that results in a ++ score, the irritative signals are completely absent, yet the salty taste used in the soy sauce of the condiment can still be easily tasted. The test substances in the ODT that produced a ++ score were then identified and further tested for effectiveness in the treatment of cough.

ocular surface = experiment: Eye wipe test, duration of cooling on ocular surface; format: in vivo, human; conditions: eye wipes 1 mg/ml in 5%-95% v/v ethanol-distilled water
Description: To further document the activities fo the test molecules, the results from an eye wipe test was included. Here the test substance is applied to the closed eyelids with a towelette at a concentration of 1 mg/ml in 5%-ethanol-95%-distilled water vol/vol and the duration of cooling on the ocular surface was recorded. […] It is likely that the mucous membranes that line the ocular surface and the pharynx have similar sensory mechanisms that are somewhat different from the philtrum skin which is keratinized.

cough = format: in vivo, human
Description: In 20 trials, 10 trials per subject, two mg of 95%+ pure powder of a D-Ala ethyl compound (No. 2 in Table 1, (R)-2-[((1R,2S,5R)-2-isopropyl-5-methyl-cyclohexanecarbonyl)-amino]-propionic acid ethyl ester)) of Formula (1) was placed on the mid-portion of the tongue of these two subjects. Both subjects reported relief from the desire to cough within 1 minute after application. Sensations of robust coolness in the back of the throat was noted and lasted for about 30 minutes. Applications of similar amounts of powdered sugar were not effective. The placebo could be clearly distinguished from the active compound because of the absence of cooling sensations.
A person with a documented 31-year history of asthma attacks volunteered to test one of the compounds falling within Formula (1). They were extremely sensitive to agents such as tobacco smoke, dust, pollen, odors, down/woolen materials, house cleansing products, pets, and sudden change of air temperature, and reacted with violent coughing, mucus secretions, wheezing, choking, and shortness of breath. At the time of this trial, they were taking these medications for their condition: theophylline, Allegra®, Advair®, Intal®, and Singulair®. In 5 trials, during a coughing spree, they placed one to two mg of 95%+ pure powder of a D-Ala ethyl ester (No. 2 in Table 1, ((R)-2-[((1R,2S,5R)-2-isopropyl-5-methyl-cyclohexanecarbonyl)-amino]-propionic acid ethyl ester))) of Formula (1) on the mid-portion of their tongue. They reported a soothing and cool sensation with a slight taste similar to Eucalyptus oil in their mouth and throat. Coughing stopped after 3 to 5 minutes and breathing was normal. […] In three trials when the compound was applied at night, they slept through the night without being awakened by cough. Their spouse remarked that, in over 30 years of marriage, this was the first time that they had seen an effective medication for their cough. They noted that the irritative signals of cough were absent in the presence of the applied chemical, but they still sensed a mechanical build up of secretions in their airways and could voluntarily cough up such secretions if necessary. They continue to use the test compound for management of their asthma, with the knowledge and consent of their physician.
A person had adult-onset asthma for 20 years. Triggers for attacks were tobacco smoke, dust, and changes in air temperature. They used Foradil® (formoterol fumarate) and Asmanex® (mometasone fuorate) twice a day to control their asthma, and monitored their pulmonary function with a portable device for measuring peak expiratory flow. They had daily episodes of both productive and non-productive cough. In 5 trials, when they felt throat irritation and a desire to cough, placement of 1 to 3 mg of (R)-2-[((1R,2S,5R)-2-isopropyl-5-methyl-cyclohexanecarbonyl)-amino]-propionic acid ethyl ester) (No. 2 in Table 1) provided rapid relief and was described as soothing and removed “tightness” in the chest. Peak expiratory flow improved from 320 Umin to 370 Umin. […] The subjective response to the long-acting NACE compound was definitely favourable. The subject remarked that the best time to use the NACE compuound was after inhaling the crystalline Foradil® because this inhaled drug irritated their throat.
ODT containing 2.0 to 2.5 mg of D-Aa Me Ester, D-Ala Et Ester, or D-Ala iPr Ester (identified chemically in Table 1 as No. 1, No. 2, and No. 3, respectively) were prepared using mannitol/maltitol as the excipient and stored in tic-tac boxes each containing 10 tablets. Over a course of two years, 14 adult males with cough tested these tablets. The causes of coughing were colds/flu, allergies, pharyngitis, excessive smoking, and two cases of gastroesophageal reflux. These individuals all had advanced degrees (M.D. or Ph.D.) and were motivated to try the tablets by scientific curiosity or because of financial interests in drug development, or, in several cases, by the annoyance caused by the cough. […]

philtrum skin [3] = conditions: ˜10 mg/ml on the skin; as shown in U.S. 20080227857; cited from earlier work

| SMILES | Chili-Pepper Sauce Test (pharyngeal surface) | Eyelids/Ocular Surface (min), duration of cooling (ocular surface) | Philtrum Skin (min), duration of cooling (philtrum skin [2]) | also measured |
| --- | --- | --- | --- | --- |
| CC1CCC(C(C)C)C(O)C1 (single isomer, unassigned; (-)) [(−)-menthol, reference compound] |  |  |  | Threshold, μg (cooling on tongue) [1]: 0.25 µg; Acts for >1 hour at 40 mM (philtrum skin [2]; 40 mM ointment on skin): no; "perfect" cooling experience (philtrum skin [2]; Table 2 summary): no; Cooling on skin of face (philtrum skin [2]; Table 2 summary): yes; Eye Irritancy (philtrum skin [2]; Table 2 summary): yes; duration of cooling action of ODT (oral cavity / oropharynx; ODT containing 5 to 10 mg): less than 10 minutes; Cooling on tongue (oral cavity / oropharynx; Table 2 summary): yes |
| CC(C)OC(=O)[C@@H](C)NC(=O)[C@@H]1C[C@H](C)CC[C@H]1C(C)C [D-Ala-OiPr, (R)-2-[((1R,2S,5R)-2-isopropyl-5-methyl-cyclohexanecarbonyl)-amino]-propionic acid isopropyl ester] | ++ | 360 min | 34 min | skin or eye irritancy (philtrum skin [2]; in vivo): without skin or eye irritancy; cooling action of ODT on the pharyngeal surface (cough; Study 6, ODT): robust cooling action; effectiveness in reducing cough (cough; Study 6, ODT 2.0 to 2.5 mg, 14 adult males with cough): 100% |
| CCCCOC(=O)C(C)NC(=O)[C@@H]1C[C@H](C)CC[C@H]1C(C)C (stereo partly drawn) [D-Ala-OnBu] | 0 | 40 min | 80 min |  |
| CCCOC(=O)C(C)NC(=O)[C@@H]1C[C@H](C)CC[C@H]1C(C)C (stereo partly drawn) [D-Ala-OnPr] | + | 65 min | 108 min |  |
| CCCCOC(=O)CNC(=O)[C@@H]1C[C@H](C)CC[C@H]1C(C)C [Gly-OnBu] | 0 | 35 min | 38 min |  |
| CCCOC(=O)CNC(=O)[C@@H]1C[C@H](C)CC[C@H]1C(C)C [Gly-OnPr] | 0 | 54 min | 42 min |  |
| CCOC(=O)C(C)NC(=O)[C@@H]1C[C@H](C)CC[C@H]1C(C)C (stereo partly drawn) [L-Ala-OiPr] | 0 | 15 min | 27 min |  |
| CCOC(=O)C(C)NC(=O)[C@@H]1C[C@H](C)CC[C@H]1C(C)C (stereo partly drawn) [L-Ala-OnBu] | 0 | 0 min | 0 min |  |
| CCOC(=O)C(C)NC(=O)[C@@H]1C[C@H](C)CC[C@H]1C(C)C (stereo partly drawn) [L-Ala-OnPr] | 0 | 10 min | 22 min |  |
| CCNC(=O)C1CC(C)CCC1C(C)C (stereo not drawn) [WS-3] |  |  |  | duration / onset of action on the skin (philtrum skin [3]): short duration of action (less than 1 hour) at ˜10 mg/ml on the skin or slow onset (more than 5 minutes); sensory irritation in oral cavity (oral cavity / oropharynx): some sensory irritation |
| COc1ccc(NC(=O)[C@@H]2C[C@H](C)CC[C@H]2C(C)C)cc1 [WS-12] |  |  |  | duration / onset of action on the skin (philtrum skin [3]): short duration of action (less than 1 hour) at ˜10 mg/ml on the skin or slow onset (more than 5 minutes) |
| CNC(=O)C(C)(C(C)C)C(C)C [WS-23] |  |  |  | duration / onset of action on the skin (philtrum skin [3]): short duration of action (less than 1 hour) at ˜10 mg/ml on the skin or slow onset (more than 5 minutes); sensory irritation in oral cavity (oral cavity / oropharynx): some sensory irritation |

— US8476317B2, “N-alkylcarbonyl-amino acid ester compounds and their use for cough and pharyngitis” (priority 2011, dated 2013)
